Results on one molecule are retold here after patent US20160039852A1, “THERAPEUTIC USES OF BISPHOSPHONATES” (THE UNIVERSITY OF SHEFFIELD, priority 2013, published 2016).

Assay [1] has as its system zebrafish embryo caudal fin. The experiment in a line: Zebrafish tail amputation and regeneration following irradiation. It is filed as in vivo, Zebrafish (Danio Rerio H). The protocol:
Embryos from wild-type Zebrafish (Danio Rerio H) AB strain were collected at 16 cell stage (˜1.5 hours post fertilisation (hpf)) and grown in E3 Medium at 28° C. Embryos were treated with Zoledronate (1 μM) and/or FOH, GGOH at 24 hpf. DNA damage was induced by exposure to ^137Cs Gamma source at 48 hpf and after irradiation the embryo tails were amputated and the embryos were then incubated at 28° C. for a further 12 hrs in the presence of the chemicals. At the end of this period the chemicals were washed off and the embryos were incubated in fresh medium with no chemicals. The embryos were grown up to 120 hpf, following which they were fixed in 4% PFA overnight and then mounted in 100% glycerol. The tail lengths of embryos were measured taking the anal region as starting reference point and the end of the fin fold as the ending point of measurement.

The test system of assay [2] is murine and human cancer lines (PC3, 178-2 BMA, MDA-MB231, 5TGM1, 5T33). The experiment in a line: γH2AX foci in cancer lines following irradiation. It is filed as cell-based. The following applies: irradiation (1Gy), Zol, 0, 4, 12, 24 and 48 h post irradiation. The protocol: (C-H) Number of γH2AX foci enumerated in (C) hMSC, (D) PC3, (E) 178-2 BMA, (F) MDA-MB231,
(G) 5TGM1 and (H) 5T33 lines following irradiation (1Gy) in the presence or absence of Zol ([…]) and assessed at 0, 4, 12, 24 and 48 h post irradiation (n=3).
Human prostate cancer cell line PC3 cells were maintained in DMEM with Glutamax (Gibco) containing 10% FBS (Sigma), 1% penicillin (100units/ml)/streptomycin (100 μg/ml) (Sigma). Mouse prostate cancer cell line 178-2 BMA was cultured as described above with the addition of 0.1 mM 4-(2-hydroxyethyl)-1-piperazineethanesulfonic acid (Life Technologies, Gaithersburg, USA) and 0.01 mM sodium pyruvate (PAA Laboratories). Human breast cancer cell line MDA-MB-231 was cultured in RPMI 1640 with Glutamax supplemented with 10% FBS (Sigma), 0.01 mM sodium pyruvate (PAA laboratories) and penicillin (1 units/ml) and streptomycin (1 μg/ml) (Sigma). […]
DNA damage was induced by exposing hMSC to ^137Cs Gamma source. […] Five to seven fields consisting of 25 cells in total were randomly selected from a tile scan (20×) and individual cells viewed at 63× were then scored for γH2AX DNA damage foci using ImageJ 1.45 software (http://rsbweb.nih.gov/ij/).

For assay [3], the system named is unprenylated RAP1A. The experiment in a line: Western blot of unprenylated RAP1A in cancer lines. It is filed as cell-based, human and murine. The following applies: Zol (1 μM) for 72 h. As to the method:
(A) A representative example of western blot analysis of human mesenchymal stem cells (MSC) and human and murine prostate cancer cell lines (human: PC3, murine 178-2 BMA), human breast cancer cell line (MDA-MB231), murine multiple myeloma cancer lines (5TGM1 and 5T33) cultured in presence or absence of Zol (1 μM) for 72 h and assessed for the expression of unprenylated RAP1A and GAPDH.
Protein lysates (50 μg) were diluted in equal volume of 2× Laemmli buffer (Gibco) containing Dithiothreitol (DTT, Sigma,UK). The samples were heated at 95° C. for 5 minutes and loaded on a 12% Tris-glycine gel. After electro-blotting, membranes were blocked with 5% Bovine serum albumin (BSA) in 0.1% Tween 20 in PBS (PBS-T) for detection of glyceraldehyde-3-phosphate dehydrogenase (GAPDH) and 5% dry milk in PBS-T for detection of unprenylated RAP1A (Santacruz Biotechnology, Santa Cruz, USA). In case of P-AKT, P-70S6K membranes were blocked with 5%BSA in 1× tris buffered saline and 0.1% tween-20 (TBS-T), where for AKT and P70S6K membranes were blocked with 5% dry milk in TBS-T. All membranes were blocked for 2 hours at room temperature. […] Detection was carried out using enhanced chemi-luminescence plus ECL reaction kit (GE Healthcare, Buckinghamshire, UK) and quantification of protein expression was carried out using image J software.

Consider `O=P(O)(O)C(O)(Cn1ccnc1)P(=O)(O)O` [Zoledronate], for which the “regeneration of the caudal fin at 120 hpf” value in assay [1] (1Gy irradiation, Zol 1 μM, FIG. 6) was “enhances tail regeneration”; in assay [1] (1 and 3 Gy irradiation (data not shown)), “same outcome”; in assay [1] (5 Gy irradiation, Zol 1 μM, n=15/group), “enhances tail regeneration”; in assay [1] (5 Gy irradiation, Zol 1 μM, n=15/group, listed as Zol), “rescued”. For the same molecule, in assay [2], the “DNA repair capacity (γH2AX foci)” value is given as “does not enhance the DNA repair capacity”. Further, in assay [3], the “mevalonate pathway (unprenylated RAP1A)” value was “inhibition of mevalonate pathway”.
